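Tested at 5 concentrations; 48 h exposure; 96-well plates; endpoints linearly interpolated, else capped at highest concentration. At the GI50, growth is halved.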 The source made the active and inactive calls. No stated cut-off is given here; in the data, active = GI50 up to about 1.1 µM and inactive = higher.
Legend:
Assay in all cases: DTP human tumour cell line panel, 48 h
HCC 2998 = test system: HCC 2998
NCI-H522 = test system: NCI-H522
CAKI-1 = test system: CAKI-1
M14 = test system: M14
PC-3 = test system: PC-3
UO-31 = test system: UO-31
TK-10 = test system: TK-10
UACC-257 = test system: UACC-257
OVCAR-8 = test system: OVCAR-8
HT-29 = test system: HT-29
HCT-15 = test system: HCT-15
Malme-3M = test system: Malme-3M
NCI/ADR-RES = test system: NCI/ADR-RES
UACC-62 = test system: UACC-62
LOX IMVI = test system: LOX IMVI
HL-60 = test system: HL-60
EKVX = test system: EKVX
BT-549 = test system: BT-549
SK-MEL-28 = test system: SK-MEL-28
U-251 = test system: U-251
786-0 = test system: 786-0
OVCAR-4 = test system: OVCAR-4
OVCAR-5 = test system: OVCAR-5
NCI-H23 = test system: NCI-H23
NCI-H460 = test system: NCI-H460
A498 = test system: A498
SK-MEL-2 = test system: SK-MEL-2
Hs-578T = test system: Hs-578T
T47D = test system: T47D
MDA-MB-435 = test system: MDA-MB-435
SF-268 = test system: SF-268
CCRF-CEM = test system: CCRF-CEM
MDA-N = test system: MDA-N
ACHN = test system: ACHN
MCF7 = test system: MCF7
IGROV-1 = test system: IGROV-1
SN12C = test system: SN12C
SW-620 = test system: SW-620
MDA-MB-231 = test system: MDA-MB-231
DU-145 = test system: DU-145
A549 = test system: A549
HCT-116 = test system: HCT-116
OVCAR-3 = test system: OVCAR-3
HOP-92 = test system: HOP-92
SNB-19 = test system: SNB-19
RPMI-8226 = test system: RPMI-8226
COLO 205 = test system: COLO 205
RXF 393 = test system: RXF 393
MOLT-4 = test system: MOLT-4
SK-OV-3 = test system: SK-OV-3
KM12 = test system: KM12
K562 = test system: K562
HOP-62 = test system: HOP-62
SNB-75 = test system: SNB-75
SK-MEL-5 = test system: SK-MEL-5
SF-295 = test system: SF-295

Cc1ccc(S[C@@H](C)[C@@](O)(CF)CN(Cc2ccccc2)C(=O)C(F)(F)F)cc1
GI50 (HCC 2998): 18.3 µM (inactive)
GI50 (NCI-H522): > 100 µM (inactive)
GI50 (CAKI-1): 25.5 µM (inactive)
GI50 (M14): 17.1 µM (inactive)
GI50 (PC-3): 29.1 µM (inactive)
GI50 (UO-31): 16.6 µM (inactive)
GI50 (TK-10): 35.2 µM (inactive)
GI50 (UACC-257): 20.9 µM (inactive)
GI50 (OVCAR-8): 5.09 µM (inactive)
GI50 (HT-29): 10.3 µM (inactive)
GI50 (HCT-15): 17.1 µM
GI50 (Malme-3M): 20.9 µM (inactive)
GI50 (NCI/ADR-RES): 20.6 µM (inactive)
GI50 (UACC-62): 13.8 µM (inactive)
GI50 (LOX IMVI): 40.3 µM (inactive)
GI50 (HL-60): 19.2 µM (inactive)
GI50 (EKVX): 21.8 µM (inactive)
GI50 (BT-549): 19.6 µM (inactive)
GI50 (SK-MEL-28): > 100 µM (inactive)
GI50 (U-251): 19 µM (inactive)
GI50 (786-0): 16.7 µM (inactive)
GI50 (OVCAR-4): 14.9 µM (inactive)
GI50 (OVCAR-5): 14.8 µM (inactive)
GI50 (NCI-H23): 18.4 µM (inactive)
GI50 (NCI-H460): 15.5 µM (inactive)
GI50 (A498): 11.5 µM (inactive)
GI50 (SK-MEL-2): 18.5 µM (inactive)
GI50 (Hs-578T): 18.3 µM (inactive)
GI50 (T47D): 28.8 µM (inactive)
GI50 (MDA-MB-435): 19.6 µM (inactive)
GI50 (SF-268): 33.2 µM (inactive)
GI50 (CCRF-CEM): 11 µM (inactive)
GI50 (MDA-N): 22.8 µM (inactive)
GI50 (ACHN): 22.1 µM (inactive)
GI50 (MCF7): 20.8 µM (inactive)
GI50 (IGROV-1): > 100 µM (inactive)
GI50 (SN12C): 18.4 µM (inactive)
GI50 (SW-620): 23.9 µM (inactive)
GI50 (MDA-MB-231): 22.4 µM (inactive)
GI50 (DU-145): 26.9 µM (inactive)
GI50 (A549): 14.8 µM (inactive)
GI50 (HCT-116): 11.4 µM (inactive)
GI50 (OVCAR-3): 13.7 µM (inactive)
GI50 (HOP-92): 4.65 µM (inactive)
GI50 (SNB-19): 23.4 µM (inactive)

Clc1ccccc1C(c1ccccc1)(c1ccccc1)n1ccnc1 [CLOTRIMAZOLE]
GI50 (HCC 2998): 16.5 µM (inactive)
GI50 (NCI-H522): 6.38 µM (inactive)
GI50 (CAKI-1): 17.4 µM (inactive)
GI50 (M14): 13.5 µM (inactive)
GI50 (PC-3): 7.03 µM (inactive)
GI50 (UO-31): 6.56 µM (inactive)
GI50 (TK-10): 15.3 µM (inactive)
GI50 (UACC-257): 10.8 µM (inactive)
GI50 (OVCAR-8): 11 µM (inactive)
GI50 (RPMI-8226): 6.32 µM (inactive)
GI50 (HT-29): 9.25 µM (inactive)
GI50 (HCT-15): 8.67 µM
GI50 (Malme-3M): 4.8 µM (inactive)
GI50 (NCI/ADR-RES): 9.25 µM (inactive)
GI50 (UACC-62): 13.3 µM (inactive)
GI50 (COLO 205): 8.99 µM (inactive)
GI50 (EKVX): 7.93 µM (inactive)
GI50 (BT-549): 8.05 µM (inactive)
GI50 (SK-MEL-28): 16.2 µM (inactive)
GI50 (RXF 393): 17.4 µM (inactive)
GI50 (U-251): 14.8 µM (inactive)
GI50 (786-0): 14.9 µM (inactive)
GI50 (MOLT-4): 8.95 µM (inactive)
GI50 (SK-OV-3): 14.5 µM (inactive)
GI50 (OVCAR-4): 9.82 µM (inactive)
GI50 (OVCAR-5): 11.8 µM (inactive)
GI50 (KM12): 11.7 µM (inactive)
GI50 (NCI-H23): 13 µM (inactive)
GI50 (NCI-H460): 10.7 µM (inactive)
GI50 (A498): 20.6 µM (inactive)
GI50 (K562): 5.97 µM (inactive)
GI50 (SK-MEL-2): 12.1 µM (inactive)
GI50 (Hs-578T): 15.1 µM (inactive)
GI50 (T47D): 7.85 µM (inactive)
GI50 (MDA-MB-435): 12.5 µM (inactive)
GI50 (SF-268): 16.5 µM (inactive)
GI50 (CCRF-CEM): 5.93 µM (inactive)
GI50 (MDA-N): 11.9 µM (inactive)
GI50 (ACHN): 10 µM (inactive)
GI50 (MCF7): 7.33 µM (inactive)
GI50 (IGROV-1): 7.57 µM (inactive)
GI50 (HOP-62): 11.4 µM (inactive)
GI50 (SW-620): 12 µM (inactive)
GI50 (MDA-MB-231): 14.9 µM (inactive)
GI50 (DU-145): 17.3 µM (inactive)
GI50 (A549): 8.2 µM (inactive)
GI50 (SNB-75): 16.5 µM (inactive)
GI50 (HCT-116): 7.82 µM (inactive)
GI50 (OVCAR-3): 5.66 µM (inactive)
GI50 (HOP-92): 11.8 µM (inactive)
GI50 (SK-MEL-5): 7.78 µM (inactive)
GI50 (SF-295): 9.95 µM (inactive)
GI50 (SNB-19): 14.4 µM (inactive)
